Results: US20100003250A1, “(2-ARYL-7H-PYRROLO[2,3-D]PYRIMIDIN-4-YL)MORPHOLINE COMPOUNDS, THEIR USE AS MTOR KINASE AND PI3 KINASE INHIBITORS, AND THEIR SYNTHESES” (Wyeth, priority 2008, published 2010)

How the values were obtained:
Type in all cases: biochemical
mTOR Kinase (FLAG-TOR) = target: T1, mTOR Kinase (FLAG-TOR) (Homo sapiens, UniProt P42345); assay: mTOR kinase assay, purified enzyme, DELFIA format; conditions: 100 μM ATP, 1.25 μM His6-S6K; read-out: mTOR Kinase Median IC50
T1 construct: FLAG

PI3Kγ = PI3Kγ (Homo sapiens, UniProt P48736); assay: PI3K-gamma fluorescence polarization assay; conditions: 20 μM PIP2, 25 μM ATP; read-out: PI3Kγ Median IC50
Sequence of PI3Kγ (P48736 whole entry, species assumed): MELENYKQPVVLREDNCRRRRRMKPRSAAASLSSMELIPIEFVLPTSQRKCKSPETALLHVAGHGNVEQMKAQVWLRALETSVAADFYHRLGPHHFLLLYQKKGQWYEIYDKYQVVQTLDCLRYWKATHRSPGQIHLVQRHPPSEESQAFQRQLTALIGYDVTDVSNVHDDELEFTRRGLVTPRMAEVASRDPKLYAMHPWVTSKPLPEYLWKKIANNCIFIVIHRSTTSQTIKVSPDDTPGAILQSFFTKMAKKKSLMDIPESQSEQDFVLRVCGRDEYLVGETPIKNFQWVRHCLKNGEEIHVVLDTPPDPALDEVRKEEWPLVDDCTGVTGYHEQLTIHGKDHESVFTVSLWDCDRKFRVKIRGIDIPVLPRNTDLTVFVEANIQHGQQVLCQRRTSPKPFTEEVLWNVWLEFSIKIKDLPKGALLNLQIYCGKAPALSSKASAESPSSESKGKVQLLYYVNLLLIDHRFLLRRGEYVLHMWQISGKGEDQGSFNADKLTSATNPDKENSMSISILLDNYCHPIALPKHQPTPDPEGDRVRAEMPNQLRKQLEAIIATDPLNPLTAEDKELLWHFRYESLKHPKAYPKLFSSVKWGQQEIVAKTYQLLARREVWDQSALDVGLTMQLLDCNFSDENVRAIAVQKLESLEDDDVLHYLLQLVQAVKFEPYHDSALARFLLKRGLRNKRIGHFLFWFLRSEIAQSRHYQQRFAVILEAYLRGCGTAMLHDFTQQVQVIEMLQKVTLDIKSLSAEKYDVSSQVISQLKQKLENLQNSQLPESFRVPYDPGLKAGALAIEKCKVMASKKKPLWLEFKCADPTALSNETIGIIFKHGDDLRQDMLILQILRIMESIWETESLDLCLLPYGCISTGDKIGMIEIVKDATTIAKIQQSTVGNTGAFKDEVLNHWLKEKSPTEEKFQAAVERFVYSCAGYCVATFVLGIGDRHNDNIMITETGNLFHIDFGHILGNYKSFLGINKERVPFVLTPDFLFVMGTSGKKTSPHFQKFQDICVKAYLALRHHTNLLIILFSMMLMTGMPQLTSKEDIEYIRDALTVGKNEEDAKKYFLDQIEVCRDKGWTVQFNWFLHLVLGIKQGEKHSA
Protocol: PI3K-alpha and PI3K-gamma Fluorescence Polarization Assay Protocols
The reaction buffer was 20 mM HEPES pH 7.5, 2 mM MgCl2, 0.05% CHAPS, and 0.01% βME (added fresh). The substrate solution was 40 μM PIP2 (diC8, Echelon, Salt Lake City Utah cat # P-4508, 1 mM in water) and 50 μM ATP in the reaction buffer. Nunc 384-well black polypropylene fluorescent plates were used for PI3K assays. The assay is run by putting 9.5 μl of freshly diluted enzyme in the reaction buffer per well, adding 0.5 μl of diluted drug or DMSO, and mixing. Then 10 μl of the substrate solution is added to each well to start the reaction. A final concentration of 20 μM PIP2 and 25 μM ATP in the reaction was used. Reactions were allowed to proceed for 30-60 minutes at room temperature. After 30-60 minutes, 20 μl of a solution of 10 nM TAMRA detector (Red detector probe-Echelon) and 2.5 μM of GST-murineGRP (1.5 mg/ml in 17% glycerol) was added per well to stop the reaction. The resulting solution was mixed well and allowed to stand for 90-110 minutes before reading plate. Assay Plates were read on Perkin-Elmer Envision plate readers with appropriate filters for Tamra [BODIPY-TMRI(1,3,4,5)P4]. Data obtained were used to calculate enzymatic activity and enzyme inhibition by inhibitor compounds. It is important to keep Red probe solutions dark. This procedure is adapted from Echelon Biosciences Inc procedure for their PI3-Kinase fluorescence polarization activity Assay kit Product number K-1100.

PI3Kα = PI3Kα (Homo sapiens, UniProt P42336); assay: PI3K-alpha fluorescence polarization assay; conditions: 20 μM PIP2, 25 μM ATP; read-out: PI3Kα Median IC50
Sequence of PI3Kα (P42336 whole entry, species assumed): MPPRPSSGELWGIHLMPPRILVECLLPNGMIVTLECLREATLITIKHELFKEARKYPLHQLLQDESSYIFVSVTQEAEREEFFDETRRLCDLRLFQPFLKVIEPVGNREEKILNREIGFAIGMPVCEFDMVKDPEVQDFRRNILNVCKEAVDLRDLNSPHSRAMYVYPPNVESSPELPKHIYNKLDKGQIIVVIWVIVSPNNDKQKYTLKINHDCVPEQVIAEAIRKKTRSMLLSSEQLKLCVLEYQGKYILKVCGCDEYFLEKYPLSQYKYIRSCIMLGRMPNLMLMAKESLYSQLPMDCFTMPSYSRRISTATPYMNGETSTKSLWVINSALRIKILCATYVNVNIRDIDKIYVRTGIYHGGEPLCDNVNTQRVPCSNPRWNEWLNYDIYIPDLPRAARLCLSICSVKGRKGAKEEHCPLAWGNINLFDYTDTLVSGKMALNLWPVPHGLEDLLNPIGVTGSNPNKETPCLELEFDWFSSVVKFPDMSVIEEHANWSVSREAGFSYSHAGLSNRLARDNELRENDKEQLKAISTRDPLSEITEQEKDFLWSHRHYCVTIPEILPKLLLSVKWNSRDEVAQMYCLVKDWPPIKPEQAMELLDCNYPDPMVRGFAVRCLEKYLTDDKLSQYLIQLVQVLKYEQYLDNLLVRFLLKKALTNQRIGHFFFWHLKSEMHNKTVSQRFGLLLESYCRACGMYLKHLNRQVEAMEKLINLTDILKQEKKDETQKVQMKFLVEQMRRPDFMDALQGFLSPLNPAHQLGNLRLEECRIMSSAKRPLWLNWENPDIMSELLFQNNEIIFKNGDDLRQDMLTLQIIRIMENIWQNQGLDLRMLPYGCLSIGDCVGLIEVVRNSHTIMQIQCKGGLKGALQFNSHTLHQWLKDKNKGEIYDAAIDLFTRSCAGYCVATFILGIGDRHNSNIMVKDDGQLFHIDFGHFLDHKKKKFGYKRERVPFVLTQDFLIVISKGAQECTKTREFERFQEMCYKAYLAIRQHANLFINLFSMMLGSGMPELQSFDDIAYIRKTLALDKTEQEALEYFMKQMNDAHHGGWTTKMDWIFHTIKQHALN
Sequence of PI3Kα (P27986 whole entry partner, species assumed): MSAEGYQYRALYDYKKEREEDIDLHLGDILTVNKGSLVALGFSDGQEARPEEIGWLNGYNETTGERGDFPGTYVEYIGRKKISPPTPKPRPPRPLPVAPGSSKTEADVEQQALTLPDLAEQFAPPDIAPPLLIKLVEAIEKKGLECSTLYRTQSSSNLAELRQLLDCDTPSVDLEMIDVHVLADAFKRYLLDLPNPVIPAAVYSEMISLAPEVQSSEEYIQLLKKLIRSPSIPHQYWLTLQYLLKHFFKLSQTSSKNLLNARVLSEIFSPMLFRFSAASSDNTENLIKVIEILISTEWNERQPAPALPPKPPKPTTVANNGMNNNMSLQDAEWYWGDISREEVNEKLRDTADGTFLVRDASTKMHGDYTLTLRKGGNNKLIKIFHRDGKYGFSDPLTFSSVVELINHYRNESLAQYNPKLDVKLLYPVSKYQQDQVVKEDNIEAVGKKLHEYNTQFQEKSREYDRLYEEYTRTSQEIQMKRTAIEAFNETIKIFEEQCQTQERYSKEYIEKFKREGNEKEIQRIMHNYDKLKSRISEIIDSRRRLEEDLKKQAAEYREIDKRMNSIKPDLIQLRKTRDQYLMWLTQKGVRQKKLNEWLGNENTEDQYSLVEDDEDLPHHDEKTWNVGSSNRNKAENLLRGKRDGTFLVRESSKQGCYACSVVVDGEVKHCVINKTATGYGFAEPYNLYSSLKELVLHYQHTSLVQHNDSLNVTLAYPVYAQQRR

Compound	IC50 (mTOR Kinase (FLAG-TOR)) [nM]	IC50 (PI3Kγ) [nM]	IC50 (PI3Kα) [nM]
NC(=O)Nc1cccc(Cn2ccc3c(N4CCOCC4)nc(-c4cccc(CO)c4)nc32)c1 [Compound 19, 1-[3-({2-[3-(hydroxymethyl)phenyl]-4-morpholin-4-yl-7H-pyrrolo[2,3-d]pyrimidin-7-yl}methyl)phenyl]urea]	435	868	99
CC(C)NCCn1ccc2c(N3CCOCC3)nc(-c3ccc(NC(=O)Nc4ccncc4)cc3)nc21 [Compound 32, 1-(4-{7-[2-(isopropylamino)ethyl]-4-morpholin-4-yl-7H-pyrrolo[2,3-d]pyrimidin-2-yl}phenyl)-3-pyridin-4-ylurea]	23	245	37
CCn1ccc2c(N3CCOCC3)nc(-c3ccc(NC(=O)Nc4ccc(C(=O)N5CCN(c6ccccn6)CC5)cc4)cc3)nc21 [Compound 75, 1-[4-(7-ethyl-4-morpholin-4-yl-7H-pyrrolo[2,3-d]pyrimidin-2-yl)phenyl]-3-{4-[(4-pyridin-2-ylpiperazin-1-yl)carbonyl]phenyl}urea]	5.65	36	8
CCn1ccc2c(N3CCOCC3)nc(-c3ccc(NC(=O)Nc4ccc(C(=O)OC)cc4)cc3)nc21 [Compound 59, methyl 4-({[4-(7-ethyl-4-morpholin-4-yl-7H-pyrrolo[2,3-d]pyrimidin-2-yl)phenyl]carbamoyl}amino)benzoate]	4.7	562	166
CCn1ccc2c(N3CCOCC3)nc(-c3ccc(NC(=O)NC)cc3)nc21 [Compound 96, 1-[4-(7-ethyl-4-morpholin-4-yl-7H-pyrrolo[2,3-d]pyrimidin-2-yl)phenyl]-3-methylurea]	4.9	1540	140

Stronger by IC50 (mTOR Kinase (FLAG-TOR)), values ahead:

IC50 (mTOR Kinase (FLAG-TOR)) [nM]	IC50 (PI3Kγ) [nM]	IC50 (PI3Kα) [nM]	Compound
4.5	11	2	CN(C)CCOc1ccc(NC(=O)Nc2ccc(-c3nc(N4CCOCC4)c4ccn(CC(F)(F)F)c4n3)cc2)cc1 [Compound 58, 1-{4-[2-(dimethylamino)ethoxy]phenyl}-3-{4-[4-morpholin-4-yl-7-(2,2,2-trifluoroethyl)-7H-pyrrolo[2,3-d]pyrimidin-2-yl]phenyl}urea]
3.45	1530	82	O=C(Nc1ccc(F)cc1)Nc1ccc(-c2nc(N3CCOCC3)c3ccn(CC(F)(F)F)c3n2)cc1 [Compound 38, 1-(4-fluorophenyl)-3-{4-[4-morpholin-4-yl-7-(2,2,2-trifluoroethyl)-7H-pyrrolo[2,3-d]pyrimidin-2-yl]phenyl}urea]
2.95	219	34	CC(C)n1ccc2c(N3CCOCC3)nc(-c3ccc(NC(=O)Nc4ccc(OCCN(C)C)cc4)cc3)nc21 [Compound 81, 1-{4-[2-(dimethylamino)ethoxy]phenyl}-3-[4-(7-isopropyl-4-morpholin-4-yl-7H-pyrrolo[2,3-d]pyrimidin-2-yl)phenyl]urea]
1.95	41	17	CN1CCN(c2ccc(NC(=O)Nc3ccc(-c4nc(N5CCOCC5)c5ccn(CC(F)(F)F)c5n4)cc3)cc2)CC1 [Compound 39, 1-[4-(4-methylpiperazin-1-yl)phenyl]-3-{4-[4-morpholin-4-yl-7-(2,2,2-trifluoroethyl)-7H-pyrrolo[2,3-d]pyrimidin-2-yl]phenyl}urea]
1.55	100	12	O=C(Nc1ccncc1)Nc1ccc(-c2nc(N3CCOCC3)c3ccn(CC4NC(=O)NC4=O)c3n2)cc1 (stereo not drawn) [Compound 35, 1-(4-{7-[(2,5-dioxoimidazolidin-4-yl)methyl]-4-morpholin-4-yl-7H-pyrrolo[2,3-d]pyrimidin-2-yl}phenyl)-3-pyridin-4-ylurea]
0.94	390	110	O=C(NCCO)Nc1ccc(-c2nc(N3CCOCC3)c3ccn(CC(F)(F)F)c3n2)cc1 [Compound 42, 1-(2-hydroxyethyl)-3-{4-[4-morpholin-4-yl-7-(2,2,2-trifluoroethyl)-7H-pyrrolo[2,3-d]pyrimidin-2-yl]phenyl}urea]
